According to patent US20110015067A1, “Herbicidal Compositions Comprising Pyroxasulfone” (BASF SE, priority 2008, published 2011):
Like-named read-outs stand apart in the source and are kept apart here.

What was measured:
Assay type in all cases: in vivo
[1] = tested on: AMARE (Amaranthus retroflexus); assay: pre-emergence greenhouse test; conditions: for inhibition at 12.5 g/ha: Amaranthus retroflexus, use rate 12.5 g ai/ha, read-out: observed % activity; for inhibition at 12.5 g/ha / observed activity in % destruction: pre-emergence
Outline: (§1)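 Pre-emergence spray right after sowing; actives in water, herbicide A/safener as 10% w/w SC, herbicide B/safener as commercial formulations. Hooded until rooted, 20-day test. Damage scored 0 (none) to 100% (complete kill) vs untreated, at 8 and/or 20 DAT.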

[2] = tested on: COMBE (Commelina benghalensis); assay: pre-emergence greenhouse test; conditions: for inhibition at 12.5 g/ha: Commelina benghalensis, use rate 12.5 g ai/ha, read-out: observed % activity; for inhibition at 12.5 g/ha / observed activity in % destruction: pre-emergence
Outline: as §1

[3] = tested on: DIGSA (Digitaria sanguinalis); assay: pre-emergence greenhouse test; conditions: DIGSA pre-emergence 25 g ai/ha
Outline: (§2)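 Visual damage ratings, 0% meaning no effect and 100% complete plant destruction relative to untreated controls, were taken 8 and/or 20 days after a pre-emergence spray. Actives were applied in water directly after sowing, solo or as mixtures.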

[4] = tested on: LOLMU (Lolium multiflorum); assay: pre-emergence greenhouse test; conditions: for observed activity in % destruction: pre-emergence
Outline: as §2

[5] = tested on: ABUTH (Abutilon theophrasti); assay: post-emergence greenhouse test; conditions: use rate 6.25 g ai/ha, read-out: observed % activity
Source text: (§3) For the post-emergence treatment, the test plants were first grown to a height of 3 to 20 cm, depending on the plant habit, and only then treated. Here, the herbicidal compositions were suspended or emulsified in water as distribution medium and sprayed using finely distributing nozzles.
(§4) The respective herbicides A and/or safener were formulated as 10% by weight strength suspension concentrate and introduced to the spray liquor with the amount of solvent system used for applying the active compound. Herbicide B and/or safener were used as commercially available formulations and introduced to the spray liquor with the amount of solvent system used for applying the active compound. In the examples, the solvent used was water.
(§5) The test period extended over 20 days. During this time, the plants were tended, and their response to the treatments with active compound was evaluated.
(§6) In the following experiments, the herbicidal activity for the individual herbicide compounds (solo application) and of the mixture was assessed 8 days after treatment (8 DAT) and/or 20 days after treatment (20 DAT).
(§7) The evaluation for the damage caused by the chemical compositions was carried out using a scale from 0 to 100%, compared to the untreated control plants. Here, 0 means no damage and 100 means complete destruction of the plants.

[6] = tested on: ALOMY (Alopecurus myosuroides); assay: post-emergence greenhouse test; conditions: for observed activity in % destruction: 50 g ai/ha; for inhibition at 6.25 g/ha / inhibition at 25 g/ha / inhibition at 50 g/ha: Alopecurus myosuroides, read-out: observed % activity; for inhibition at 6.25 g/ha: use rate 6.25 g ai/ha; for inhibition at 25 g/ha: use rate 25 g ai/ha; for inhibition at 50 g/ha: use rate 50 g ai/ha
Source text: as §3, §4, §5, §6, §7

[7] = tested on: AMBEL (Ambrosia artemisifolia); assay: post-emergence greenhouse test; conditions: for observed activity in % destruction: 25 g ai/ha; for inhibition at 50 g/ha: Ambrosia, use rate 50 g ai/ha, read-out: observed % activity
Source text: as §3, §4, §5, §6, §7

[8] = tested on: BRAPL (Brachiaria plantaginea); assay: post-emergence greenhouse test; conditions: Urochloa plantaginea, read-out: observed % activity; for inhibition at 6.25 g/ha: use rate 6.25 g ai/ha; for inhibition at 12.5 g/ha: use rate 12.5 g ai/ha
Source text: as §3, §4, §5, §6, §7

[9] = tested on: COMBE (Commelina benghalensis); assay: post-emergence greenhouse test; conditions: read-out: observed % activity; for inhibition at 6.25 g/ha: Table 18, use rate 6.25 g ai/ha; for inhibition at 12.5 g/ha: Table 20, use rate 12.5 g ai/ha
Source text: as §3, §4, §5, §6, §7

[10] = tested on: ECHCG (Echinochloa crus-galli); assay: post-emergence greenhouse test; conditions: use rate 6.25 g ai/ha, read-out: observed % activity
Source text: as §3, §4, §5, §6, §7

ELEIN (Eleusine indica) = assay: post-emergence greenhouse test; conditions: use rate 6.25 g ai/ha, read-out: observed % activity
Source text: as §3, §4, §5, §6, §7

ERBVI = assay: post-emergence greenhouse test; conditions: use rate 12.5 g ai/ha, read-out: observed % activity
Source text: as §3, §4, §5, §6, §7

[11] = tested on: LOLMU (Lolium multiflorum); assay: post-emergence greenhouse test; conditions: 50 g ai/ha
Source text: as §3, §4, §5, §6, §7

[12] = tested on: MERAN (Mercurialis annua); assay: post-emergence greenhouse test; conditions: for observed activity in % destruction: 50 g ai/ha; for inhibition at 50 g/ha: Mercurialis annua, use rate 50 g ai/ha, read-out: observed % activity
Source text: as §3, §4, §5, §6, §7

[13] = tested on: PANDI (Panicum dichotomiflorum); assay: post-emergence greenhouse test; conditions: use rate 25 g ai/ha, read-out: observed % activity
Source text: as §3, §4, §5, §6, §7

SETFA (Setaria faberii) = assay: post-emergence greenhouse test; conditions: Setaria faberi, use rate 25 g ai/ha, read-out: observed % activity
Source text: as §3, §4, §5, §6, §7

SETVI (Setaria viridis) = assay: post-emergence greenhouse test; conditions: use rate 6.25 g ai/ha, read-out: observed % activity
Source text: as §3, §4, §5, §6, §7

[14] = COMBE pre-emergence 6.25 g ai/ha
[15] = COMBE pre-emergence 12.5 g ai/ha

Cn1nc(C(F)(F)F)c(CS(=O)(=O)C2=NOC(C)(C)C2)c1OC(F)F [pyroxasulfone, 3-[5-(difluoromethoxy)-1-methyl-3-(trifluoromethyl)pyrazol-4-ylmethylsulfonyl]-4,5-dihydro-5,5-dimethyl-1,2-oxazole]
70%: observed % destruction 20 DAT [2, 14] | observed activity in % destruction ([2]; 6.25 g ai/ha, 20 DAT) | inhibition at 50 g/ha ([7]; 480 h, 20 DAT)
45%: inhibition at 12.5 g/ha ([8]; 480 h, 20 DAT) | observed activity in % destruction ([12]; 8 DAT) | inhibition at 50 g/ha ([12]; 192 h, 8 DAT)
80%: observed % destruction 8 DAT ([1]; AMARE pre-emergence 25 g ai/ha) | inhibition at 12.5 g/ha ([1]; 192 h, 8 DAT) | observed activity in % destruction ([1]; 12.5 g ai/ha, 8 DAT) | observed activity in % destruction ([1]; 25 g ai/ha, 8 DAT) | inhibition at 6.25 g/ha ([10]; 480 h, 20 DAT) | observed activity in % destruction ([11]; 20 DAT)
75%: observed % destruction 8 DAT [2, 15] | inhibition at 12.5 g/ha ([2]; 192 h, 8 DAT) | observed activity in % destruction ([2]; 12.5 g ai/ha, 8 DAT) | observed activity in % destruction ([6]; 20 DAT) | inhibition at 50 g/ha ([6]; 480 h, 20 DAT) | inhibition at 12.5 g/ha (ERBVI; 480 h, 20 DAT) | inhibition at 6.25 g/ha (SETVI (Setaria viridis); 480 h, 20 DAT)
90%: observed activity in % destruction ([1]; 50 g ai/ha, 8 DAT) | observed % destruction 8 DAT [3] | observed activity in % destruction ([4]; 50 g ai/ha, 8 DAT) | inhibition at 6.25 g/ha (ELEIN (Eleusine indica); 480 h, 20 DAT) | inhibition at 25 g/ha (SETFA (Setaria faberii); 480 h, 20 DAT)
95%: observed % destruction 20 DAT ([1]; AMARE pre-emergence 12.5 g ai/ha) | inhibition at 12.5 g/ha ([1]; 480 h, 20 DAT) | observed activity in % destruction ([1]; 12.5 g ai/ha, 20 DAT) | observed % destruction 8 DAT ([2]; COMBE pre-emergence 25 g ai/ha) | observed activity in % destruction ([2]; 25 g ai/ha, 8 DAT)
55%: inhibition at 25 g/ha ([6]; 480 h, 20 DAT) | inhibition at 6.25 g/ha (ELEIN (Eleusine indica); 192 h, 8 DAT) | inhibition at 25 g/ha (SETFA (Setaria faberii); 192 h, 8 DAT)
50%: observed % destruction 20 DAT ([4]; LOLMU pre-emergence 6.25 g ai/ha) | observed activity in % destruction ([4]; 6.25 g ai/ha, 20 DAT) | observed activity in % destruction ([4]; 12.5 g ai/ha, 8 DAT) | observed activity in % destruction ([7]; 8 DAT) | inhibition at 50 g/ha ([7]; 192 h, 8 DAT)
85%: observed activity in % destruction ([12]; 20 DAT) | inhibition at 50 g/ha ([12]; 480 h, 20 DAT) | inhibition at 25 g/ha ([13]; 480 h, 20 DAT)
60%: observed activity in % destruction ([11]; 8 DAT) | inhibition at 25 g/ha ([13]; 192 h, 8 DAT)
98%: observed % destruction 20 DAT [2, 15] | inhibition at 12.5 g/ha ([2]; 480 h, 20 DAT) | observed activity in % destruction ([2]; 12.5 g ai/ha, 20 DAT) | observed % destruction 20 DAT ([4]; LOLMU pre-emergence 50 g ai/ha) | observed activity in % destruction ([4]; 50 g ai/ha, 20 DAT)
20%: inhibition at 6.25 g/ha ([6]; 192 h, 8 DAT) | inhibition at 6.25 g/ha ([8]; 192 h, 8 DAT) | inhibition at 6.25 g/ha ([9]; 192 h, 8 DAT) | inhibition at 6.25 g/ha ([9]; 480 h, 20 DAT)
40%: observed % destruction 8 DAT [2, 14] | observed activity in % destruction ([2]; 6.25 g ai/ha, 8 DAT) | observed activity in % destruction ([4]; 6.25 g ai/ha, 8 DAT) | inhibition at 6.25 g/ha ([5]; 192 h, 8 DAT) | inhibition at 6.25 g/ha ([5]; 480 h, 20 DAT) | observed activity in % destruction ([7]; 20 DAT) | inhibition at 6.25 g/ha ([8]; 480 h, 20 DAT) | inhibition at 12.5 g/ha ([9]; 480 h, 20 DAT) | inhibition at 12.5 g/ha (ERBVI; 192 h, 8 DAT) | inhibition at 6.25 g/ha (SETVI (Setaria viridis); 192 h, 8 DAT)
100%: observed % destruction 20 DAT ([1]; AMARE pre-emergence 25 g ai/ha) | observed activity in % destruction ([1]; 25 g ai/ha, 20 DAT) | observed activity in % destruction ([1]; 50 g ai/ha, 20 DAT) | observed % destruction 20 DAT ([2]; COMBE pre-emergence 25 g ai/ha) | observed activity in % destruction ([2]; 25 g ai/ha, 20 DAT) | observed % destruction 20 DAT [3]
65%: observed % destruction 20 DAT ([4]; LOLMU pre-emergence 12.5 g ai/ha) | observed activity in % destruction ([4]; 12.5 g ai/ha, 20 DAT)
30%: observed activity in % destruction ([6]; 8 DAT) | inhibition at 25 g/ha ([6]; 192 h, 8 DAT) | inhibition at 50 g/ha ([6]; 192 h, 8 DAT) | inhibition at 6.25 g/ha ([6]; 480 h, 20 DAT) | inhibition at 12.5 g/ha ([8]; 192 h, 8 DAT) | inhibition at 12.5 g/ha ([9]; 192 h, 8 DAT) | inhibition at 6.25 g/ha ([10]; 192 h, 8 DAT)
